Data set [1] is described as follows: Cytotoxicity against human SH-SY5Y cells assessed as reduction in cell viability at 100 uM incubated for 24 hrs by MTT assay relative to untreated cells. The data set is classed as cell-based. The settings on record: read-out: INH.
Data set [2] relates to Tyrosine-protein kinase ABL1 (Homo sapiens), P00519 [T315I]. Nature of the data set: Binding affinity to human non-phosphorylated ABL1 T315I mutant (S229 to K512 residues) expressed in mammalian expression system assessed as residual binding level at 10 uM by Kinomescan method relative to control.
Data set [3] addresses Calcium/calmodulin-dependent protein kinase type II subunit delta (Homo sapiens) (UniProt Q13557). Nature of the data set: Binding affinity to wild-type human partial length CAMK2D (M1 to E329 residues) expressed in bacterial expression system assessed as residual binding level at 10 uM by Kinomescan method relative to control.
Data set [4] deals with Calcium/calmodulin-dependent protein kinase kinase 1 (Homo sapiens) (UniProt Q8N5S9). Nature of the data set: Binding affinity to wild-type human partial length CAMKK1 (R65 to E414 residues) expressed in bacterial expression system assessed as residual binding level at 10 uM by Kinomescan method relative to control.
In data set [5] the target is Death-associated protein kinase 2 (Homo sapiens) (UniProt Q9UIK4). Nature of the data set: Binding affinity to wild-type human full length DAPK2 (M1 to S370 residues) expressed in bacterial expression system assessed as residual binding level at 10 uM by Kinomescan method relative to control.
Chain of Death-associated protein kinase 2 (Homo sapiens) (Q9UIK4 whole entry, looked up, the tested form may be a part): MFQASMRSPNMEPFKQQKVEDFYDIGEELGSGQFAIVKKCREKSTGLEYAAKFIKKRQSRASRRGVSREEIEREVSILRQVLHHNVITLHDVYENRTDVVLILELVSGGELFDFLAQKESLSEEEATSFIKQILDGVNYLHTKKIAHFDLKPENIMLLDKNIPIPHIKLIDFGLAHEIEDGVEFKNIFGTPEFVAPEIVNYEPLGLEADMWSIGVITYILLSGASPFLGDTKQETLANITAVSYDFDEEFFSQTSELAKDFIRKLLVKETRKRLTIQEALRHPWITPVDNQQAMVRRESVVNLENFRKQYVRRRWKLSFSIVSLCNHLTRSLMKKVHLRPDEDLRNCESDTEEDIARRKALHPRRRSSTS
The subject of data set [6] is Epidermal growth factor receptor (Homo sapiens), P00533 [G719C]. Nature of the data set: Binding affinity to human partial length EGFR G719C mutant (R669 to V1011 residues) expressed in bacterial expression system assessed as residual binding level at 10 uM by Kinomescan method relative to control.
Data set [7] has as its target Tyrosine-protein kinase Fes/Fps (Homo sapiens) (UniProt P07332). Nature of the data set: Binding affinity to wild-type human partial length FES (I527 to R822 residues) expressed in bacterial expression system assessed as residual binding level at 10 uM by Kinomescan method relative to control.
The subject of data set [8] is Receptor-type tyrosine-protein kinase FLT3 (Homo sapiens), P36888 [D835Y]. Nature of the data set: Binding affinity to human partial length FLT3 D835Y mutant (Q580 to Y969 residues) expressed in bacterial expression system assessed as residual binding level at 10 uM by Kinomescan method relative to control.
The target of data set [9] is G protein-coupled receptor kinase 3 (Homo sapiens) (UniProt P35626). Nature of the data set: Binding affinity to wild-type human full length GRK3 (M1 to L688 residues) expressed in mammalian expression system assessed as residual binding level at 10 uM by Kinomescan method relative to control.
Data set [10] has as its target Mitogen-activated protein kinase kinase kinase 2 (Homo sapiens) (UniProt Q9Y2U5). Nature of the data set: Binding affinity to wild-type human partial length MAP3K2 (S315 to H619 residues) expressed in mammalian expression system assessed as residual binding level at 10 uM by Kinomescan method relative to control.
Data set [11] deals with Mitogen-activated protein kinase kinase kinase 4 (Homo sapiens) (UniProt Q9Y6R4). Nature of the data set: Binding affinity to wild-type human partial length MAP3K4 (G1319 to E1608 residues) expressed in bacterial expression system assessed as residual binding level at 10 uM by Kinomescan method relative to control.
Chain of Mitogen-activated protein kinase kinase kinase 4 (Homo sapiens) (Q9Y6R4 whole entry, the tested form may be a part): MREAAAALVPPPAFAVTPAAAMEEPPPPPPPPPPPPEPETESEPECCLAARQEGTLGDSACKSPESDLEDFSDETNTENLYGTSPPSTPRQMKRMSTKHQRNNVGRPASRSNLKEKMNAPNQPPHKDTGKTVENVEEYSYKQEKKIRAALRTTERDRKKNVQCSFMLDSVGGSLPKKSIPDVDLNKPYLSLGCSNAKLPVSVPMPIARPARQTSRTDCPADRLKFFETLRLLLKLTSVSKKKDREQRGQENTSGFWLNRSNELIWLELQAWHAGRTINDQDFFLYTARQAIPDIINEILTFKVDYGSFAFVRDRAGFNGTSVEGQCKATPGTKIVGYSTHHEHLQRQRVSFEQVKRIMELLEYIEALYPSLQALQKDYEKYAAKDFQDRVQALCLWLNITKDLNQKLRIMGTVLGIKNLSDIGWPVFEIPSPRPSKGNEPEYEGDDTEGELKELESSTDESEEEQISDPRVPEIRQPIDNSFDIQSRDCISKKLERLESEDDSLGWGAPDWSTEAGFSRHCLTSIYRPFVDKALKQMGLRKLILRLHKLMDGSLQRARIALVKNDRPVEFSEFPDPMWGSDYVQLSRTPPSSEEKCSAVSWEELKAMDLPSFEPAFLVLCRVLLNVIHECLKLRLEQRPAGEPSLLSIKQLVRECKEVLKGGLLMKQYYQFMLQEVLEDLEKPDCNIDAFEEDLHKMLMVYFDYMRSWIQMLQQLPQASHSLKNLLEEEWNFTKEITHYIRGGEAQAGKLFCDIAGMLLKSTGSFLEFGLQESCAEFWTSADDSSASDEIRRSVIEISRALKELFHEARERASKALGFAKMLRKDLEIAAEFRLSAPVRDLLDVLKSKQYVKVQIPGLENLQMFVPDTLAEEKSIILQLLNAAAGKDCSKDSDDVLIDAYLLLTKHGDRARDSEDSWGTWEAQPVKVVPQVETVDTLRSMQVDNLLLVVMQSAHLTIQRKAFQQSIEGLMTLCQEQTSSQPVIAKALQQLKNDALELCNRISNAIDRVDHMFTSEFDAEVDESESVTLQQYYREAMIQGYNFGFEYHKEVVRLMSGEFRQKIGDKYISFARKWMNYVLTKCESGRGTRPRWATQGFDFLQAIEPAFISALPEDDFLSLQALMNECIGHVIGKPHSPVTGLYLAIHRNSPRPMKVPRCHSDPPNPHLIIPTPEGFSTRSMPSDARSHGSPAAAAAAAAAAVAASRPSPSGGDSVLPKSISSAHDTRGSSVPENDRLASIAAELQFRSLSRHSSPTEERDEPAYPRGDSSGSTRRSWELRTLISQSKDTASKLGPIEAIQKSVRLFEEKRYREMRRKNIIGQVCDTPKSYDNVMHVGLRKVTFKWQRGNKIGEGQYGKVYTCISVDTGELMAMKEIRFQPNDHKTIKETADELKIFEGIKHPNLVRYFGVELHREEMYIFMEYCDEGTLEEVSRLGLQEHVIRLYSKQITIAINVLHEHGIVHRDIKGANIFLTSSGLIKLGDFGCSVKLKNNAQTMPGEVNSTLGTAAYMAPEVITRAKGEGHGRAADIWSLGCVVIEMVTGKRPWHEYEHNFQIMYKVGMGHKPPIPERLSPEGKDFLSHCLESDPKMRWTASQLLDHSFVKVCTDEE
Data set [12] deals with Mitogen-activated protein kinase kinase kinase kinase 5 (Homo sapiens) (UniProt Q9Y4K4). Nature of the data set: Binding affinity to wild-type human partial length MAP4K5 (M1 to P297 residues) expressed in bacterial expression system assessed as residual binding level at 10 uM by Kinomescan method relative to control.
The target of data set [13] is Serine/threonine-protein kinase MARK1 (Homo sapiens) (UniProt Q9P0L2). Nature of the data set: Binding affinity to wild-type human partial length MARK1 (Q30 to T341 residues) expressed in bacterial expression system assessed as residual binding level at 10 uM by Kinomescan method relative to control.
The target in data set [14] is Serine/threonine-protein kinase Nek6 (Homo sapiens) (UniProt Q9HC98). Nature of the data set: Binding affinity to wild-type human full length NEK6 (M8 to T313 residues) expressed in bacterial expression system assessed as residual binding level at 10 uM by Kinomescan method relative to control.
Data set [15] has as its target Mitogen-activated protein kinase 14 (Homo sapiens) (UniProt Q16539). Nature of the data set: Binding affinity to wild-type human full length p38-alpha (M1 to S360 residues) expressed in bacterial expression system assessed as residual binding level at 10 uM by Kinomescan method relative to control.
Data set [16] has as its system Phosphatidylinositol 4,5-bisphosphate 3-kinase catalytic subunit alpha isoform (Homo sapiens), P42336 [I800L]. Nature of the data set: Binding affinity to human partial length PIK3CA I800L mutant (R108 to N1068 residues) expressed in mammalian expression system assessed as residual binding level at 10 uM by Kinomescan method relative to control.
In data set [17] the target is Phosphatidylinositol 4-phosphate 5-kinase type-1 alpha (Homo sapiens) (UniProt Q99755). Nature of the data set: Binding affinity to wild-type human full length PIP5K1A (M1 to H562 residues) expressed in bacterial expression system assessed as residual binding level at 10 uM by Kinomescan method relative to control.
The target of data set [18] is cGMP-dependent protein kinase 1 (Homo sapiens) (UniProt Q13976). Nature of the data set: Binding affinity to wild-type human partial length PRKG1 (L339 to F686 residues) expressed in bacterial expression system assessed as residual binding level at 10 uM by Kinomescan method relative to control.
Chain of cGMP-dependent protein kinase 1 (Homo sapiens) (Q13976 whole entry, the tested form may be a part): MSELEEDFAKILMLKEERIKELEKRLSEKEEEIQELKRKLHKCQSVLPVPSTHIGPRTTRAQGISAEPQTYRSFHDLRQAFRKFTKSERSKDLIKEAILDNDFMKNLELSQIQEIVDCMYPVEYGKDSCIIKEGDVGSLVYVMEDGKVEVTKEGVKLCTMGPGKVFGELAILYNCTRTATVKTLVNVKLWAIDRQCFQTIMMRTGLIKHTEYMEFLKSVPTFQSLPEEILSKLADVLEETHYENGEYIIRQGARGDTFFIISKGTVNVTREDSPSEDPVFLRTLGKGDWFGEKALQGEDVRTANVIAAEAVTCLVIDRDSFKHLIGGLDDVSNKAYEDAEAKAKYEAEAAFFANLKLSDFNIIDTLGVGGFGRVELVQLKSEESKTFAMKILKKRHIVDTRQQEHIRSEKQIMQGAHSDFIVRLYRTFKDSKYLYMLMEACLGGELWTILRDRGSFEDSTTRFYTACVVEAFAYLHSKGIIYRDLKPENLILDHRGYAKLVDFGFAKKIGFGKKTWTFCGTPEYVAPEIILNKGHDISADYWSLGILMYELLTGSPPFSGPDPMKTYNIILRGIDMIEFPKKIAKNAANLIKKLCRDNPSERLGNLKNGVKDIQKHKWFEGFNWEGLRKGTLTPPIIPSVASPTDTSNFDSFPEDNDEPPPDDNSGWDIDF
Data set [19] has as its target cGMP-dependent protein kinase 2 (Homo sapiens) (UniProt Q13237). Nature of the data set: Binding affinity to wild-type human partial length PRKG2 (S422 to F762 residues) expressed in mammalian expression system assessed as residual binding level at 10 uM by Kinomescan method relative to control.
In data set [20] the target is Serine/threonine-protein kinase RIO1 (Homo sapiens) (UniProt Q9BRS2). Nature of the data set: Binding affinity to wild-type human full length RIOK1 (M1 to K568 residues) expressed in bacterial expression system assessed as residual binding level at 10 uM by Kinomescan method relative to control.
Chain of Serine/threonine-protein kinase RIO1 (Homo sapiens) (Q9BRS2 whole entry, the tested form may be a part): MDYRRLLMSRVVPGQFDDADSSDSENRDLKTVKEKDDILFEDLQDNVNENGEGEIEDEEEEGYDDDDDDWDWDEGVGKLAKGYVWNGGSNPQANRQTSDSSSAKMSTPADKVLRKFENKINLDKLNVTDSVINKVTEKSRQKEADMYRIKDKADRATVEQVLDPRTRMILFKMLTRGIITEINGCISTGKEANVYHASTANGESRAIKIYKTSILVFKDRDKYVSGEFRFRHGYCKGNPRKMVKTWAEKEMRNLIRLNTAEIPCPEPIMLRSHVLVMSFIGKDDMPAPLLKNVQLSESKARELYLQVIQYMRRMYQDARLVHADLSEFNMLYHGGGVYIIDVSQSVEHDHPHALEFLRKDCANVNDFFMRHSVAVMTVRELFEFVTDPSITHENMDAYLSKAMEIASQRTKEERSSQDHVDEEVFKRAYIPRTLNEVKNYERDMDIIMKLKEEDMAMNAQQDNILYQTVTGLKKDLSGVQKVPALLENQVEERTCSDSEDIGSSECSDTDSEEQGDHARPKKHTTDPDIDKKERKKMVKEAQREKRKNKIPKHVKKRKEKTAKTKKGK
In data set [21] the target is STE20-like serine/threonine-protein kinase (Homo sapiens) (UniProt Q9H2G2). Nature of the data set: Binding affinity to wild-type human partial length SLK (S14 to A307 residues) expressed in bacterial expression system assessed as residual binding level at 10 uM by Kinomescan method relative to control.
Data set [22] concerns the target SRSF protein kinase 1 (Homo sapiens) (UniProt Q96SB4). Nature of the data set: Binding affinity to wild-type human full length SRPK1 (M1 to S655 residues) expressed in bacterial expression system assessed as residual binding level at 10 uM by Kinomescan method relative to control.
The target of data set [23] is Tyrosine-protein kinase Tec (Homo sapiens) (UniProt P42680). Nature of the data set: Binding affinity to wild-type human partial length TEC (L341 to D620 residues) expressed in bacterial expression system assessed as residual binding level at 10 uM by Kinomescan method relative to control.
Chain of Tyrosine-protein kinase Tec (Homo sapiens) (P42680 whole entry, the tested form may be a part): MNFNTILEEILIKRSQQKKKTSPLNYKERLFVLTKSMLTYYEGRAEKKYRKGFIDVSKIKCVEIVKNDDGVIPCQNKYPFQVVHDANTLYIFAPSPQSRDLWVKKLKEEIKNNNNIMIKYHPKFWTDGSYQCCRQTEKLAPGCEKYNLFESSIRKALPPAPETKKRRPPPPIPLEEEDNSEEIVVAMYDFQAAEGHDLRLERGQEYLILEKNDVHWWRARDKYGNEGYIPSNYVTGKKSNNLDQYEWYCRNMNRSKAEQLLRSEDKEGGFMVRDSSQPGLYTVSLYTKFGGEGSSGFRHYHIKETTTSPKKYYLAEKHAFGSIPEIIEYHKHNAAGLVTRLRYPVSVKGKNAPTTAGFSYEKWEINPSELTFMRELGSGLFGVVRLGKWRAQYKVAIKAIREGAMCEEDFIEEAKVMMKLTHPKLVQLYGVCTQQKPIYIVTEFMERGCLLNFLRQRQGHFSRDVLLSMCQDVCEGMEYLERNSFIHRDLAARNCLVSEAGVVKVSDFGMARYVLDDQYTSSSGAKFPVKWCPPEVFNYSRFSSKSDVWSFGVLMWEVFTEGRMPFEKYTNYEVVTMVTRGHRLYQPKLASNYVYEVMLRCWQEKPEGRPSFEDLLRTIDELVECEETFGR
Data set [24] concerns the target Activated CDC42 kinase 1 (Homo sapiens) (UniProt Q07912). Nature of the data set: Binding affinity to wild-type human partial length TNK2 (S159 to D474 residues) expressed in bacterial expression system assessed as residual binding level at 10 uM by Kinomescan method relative to control.

Each structure is given as a SMILES string.

Chain of Calcium/calmodulin-dependent protein kinase type II subunit delta (Homo sapiens) (Q13557 whole entry, the tested form may be a part): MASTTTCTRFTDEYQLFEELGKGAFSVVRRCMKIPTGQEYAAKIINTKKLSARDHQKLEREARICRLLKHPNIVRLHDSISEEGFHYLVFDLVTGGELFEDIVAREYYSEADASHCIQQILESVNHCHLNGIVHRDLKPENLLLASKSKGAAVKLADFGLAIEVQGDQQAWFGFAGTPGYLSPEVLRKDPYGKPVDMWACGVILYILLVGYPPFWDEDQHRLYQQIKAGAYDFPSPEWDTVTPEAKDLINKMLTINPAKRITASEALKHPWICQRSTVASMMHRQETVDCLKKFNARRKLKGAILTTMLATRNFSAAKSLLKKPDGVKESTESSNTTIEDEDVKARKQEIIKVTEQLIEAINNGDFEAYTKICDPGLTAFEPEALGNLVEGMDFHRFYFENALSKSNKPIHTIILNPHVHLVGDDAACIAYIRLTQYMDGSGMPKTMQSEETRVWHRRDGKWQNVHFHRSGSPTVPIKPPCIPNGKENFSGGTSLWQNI
Chain of SRSF protein kinase 1 (Homo sapiens) (Q96SB4 whole entry, the tested form may be a part): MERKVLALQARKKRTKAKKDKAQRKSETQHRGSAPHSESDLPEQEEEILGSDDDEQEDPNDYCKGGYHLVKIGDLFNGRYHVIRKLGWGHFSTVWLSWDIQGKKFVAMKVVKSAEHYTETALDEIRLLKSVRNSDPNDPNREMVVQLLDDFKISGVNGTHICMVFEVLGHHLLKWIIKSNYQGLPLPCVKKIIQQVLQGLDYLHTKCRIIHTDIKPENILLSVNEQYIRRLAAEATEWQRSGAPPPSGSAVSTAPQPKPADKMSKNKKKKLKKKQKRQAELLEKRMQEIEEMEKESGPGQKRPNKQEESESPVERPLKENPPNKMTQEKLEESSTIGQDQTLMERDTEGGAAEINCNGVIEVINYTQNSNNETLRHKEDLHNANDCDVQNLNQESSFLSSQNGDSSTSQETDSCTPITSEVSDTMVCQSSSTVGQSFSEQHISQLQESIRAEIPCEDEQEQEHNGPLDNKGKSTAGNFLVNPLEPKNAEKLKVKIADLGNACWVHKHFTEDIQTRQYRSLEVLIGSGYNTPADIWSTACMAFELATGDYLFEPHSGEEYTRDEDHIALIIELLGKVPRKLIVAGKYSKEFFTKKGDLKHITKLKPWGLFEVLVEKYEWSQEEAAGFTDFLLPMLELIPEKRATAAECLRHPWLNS

On to `O=C(Nc1cc(-c2cn(CCNc3c4c(nc5ccccc35)CCCC4)nn2)ccn1)Nc1cccc2c1C1CCCCN1C2=O` (racemic), for which the cytotoxicity at 24 h, 100 µM in data set [1] came to 50%. Further, the Activity was 18% in [2]; 80% in data set [3]; 23% in data set [4]; 72% in [5]; 78% in [6]; 92% in data set [7]. Moreover, the Activity in data set [8] is 1.1%; in data set [9] it was 100%; in data set [10], 9.1%; in data set [11] it was 79%; in data set [12], 25%; in data set [13], 50%. For the same molecule, the Activity in [14] turned out to be 28%; in [15] it was 91%; in data set [16], 55%; in [17], 22%; in data set [18], 92%; in data set [19], 4.4%. Besides, the Activity was 5.2% in data set [20]; 30% in data set [21]; 8.2% in data set [22]; 93% in [23]; 100% in data set [24].

Values taken from ChEMBL document CHEMBL4390652, “Design, biological evaluation and X-ray crystallography of nanomolar multifunctional ligands targeting simultaneously acetylcholinesterase and glycogen synthase kinase-3” (Eur J Med Chem, 2019).
